Measurements published in patent US20160015770A1, “COMPOSITIONS FOR TREATMENT OF RETINAL DETACHMENT” (THE REGENTS OF THE UNIVERSITY OF MICHIGAN, priority 2013, published 2016).

Target: T1, calpain 1 (Mus musculus, UniProt O35350)
T1 construct: endogenous in cells; host or cells: 661W mouse photoreceptor cell line
T1 sequence (O35350 1-713): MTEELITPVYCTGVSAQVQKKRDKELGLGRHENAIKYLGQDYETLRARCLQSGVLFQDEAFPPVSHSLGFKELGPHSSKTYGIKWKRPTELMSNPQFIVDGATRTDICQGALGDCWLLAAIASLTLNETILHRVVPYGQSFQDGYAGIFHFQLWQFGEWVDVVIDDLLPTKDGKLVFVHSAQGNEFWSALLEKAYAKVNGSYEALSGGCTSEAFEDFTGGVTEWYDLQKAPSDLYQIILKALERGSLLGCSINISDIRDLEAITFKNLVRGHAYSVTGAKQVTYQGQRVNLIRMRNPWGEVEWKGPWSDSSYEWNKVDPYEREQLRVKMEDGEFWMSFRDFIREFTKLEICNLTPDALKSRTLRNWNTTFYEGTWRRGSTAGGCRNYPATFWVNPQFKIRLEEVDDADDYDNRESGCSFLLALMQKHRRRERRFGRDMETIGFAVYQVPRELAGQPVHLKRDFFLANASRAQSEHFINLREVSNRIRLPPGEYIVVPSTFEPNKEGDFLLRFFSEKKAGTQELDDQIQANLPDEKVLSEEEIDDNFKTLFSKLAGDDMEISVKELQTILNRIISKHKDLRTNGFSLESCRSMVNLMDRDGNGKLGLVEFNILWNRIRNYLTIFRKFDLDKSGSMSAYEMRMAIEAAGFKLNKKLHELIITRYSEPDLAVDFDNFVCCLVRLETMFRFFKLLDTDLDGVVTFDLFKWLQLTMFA
T1 sequence (O88456 1-268 partner): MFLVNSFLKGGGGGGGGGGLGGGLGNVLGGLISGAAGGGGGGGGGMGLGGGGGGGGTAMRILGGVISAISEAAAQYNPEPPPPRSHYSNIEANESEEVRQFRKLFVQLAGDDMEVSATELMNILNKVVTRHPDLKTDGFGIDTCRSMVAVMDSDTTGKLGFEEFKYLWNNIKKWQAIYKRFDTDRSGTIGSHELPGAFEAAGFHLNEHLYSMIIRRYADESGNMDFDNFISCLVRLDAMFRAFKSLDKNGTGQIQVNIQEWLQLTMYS
Test: Western blot of calpain 1 specific cleaved alpha-spectrin in 661W cells treated with Fas activating antibody
Format: cell-based
Settings: 24 hours
Procedure: The 661W photoreceptor cell line was generously provided by Dr. Muayyad Al-Ubaidi (Department of Cell Biology, University of Oklahoma Health Sciences Center, Oklahoma City, Okla.). The 661W cell line was maintained in Dulbecco's modified Eagle's medium containing 10% fetal bovine serum, 300 mg/L glutamine, 32 mg/L putrescine, 40 μL/L β-mercaptoethanol, and 40 μg/L of both hydrocortisone 21-hemisuccinate and progesterone. The media also contained penicillin (90 units/mL) and streptomycin (0.09 mg/mL). Cells were grown at 37° C. in a humidified atmosphere of 5% CO2 and 95% air.
Retinas from experimental eyes with detachment (detached portion of retina only) and control eyes without detachment were dissected from the RPE-choroid, homogenized, and lysed in buffer containing 10 mM HEPES (pH 7.6), 0.5% IgEPal, 42 mM KCl, 1 mM phenylmethylsulfonyl fluoride, 1 mM EDTA, 1 mM EGTA, 1 mM dithiothreitol, 5 mM MgCl2, and one tablet of protease inhibitors per 10 mL buffer (Complete Mini; Roche Diagnostics GmbH, Madison, Wis.). 661W cells were plated at 150,000 cells per well in six-well culture dishes in growth media. After 24 hours, the cells were washed one time with warmed PBS solution and then placed in growth media without fetal bovine serum. Depending on experimental conditions, 500 ng/mL Fas activating antibody (BD Biosciences, San Jose, Calif.) and various calpain inhibitors including MDG-28170 (Sigma, St. Louis, Mo.), MG-101 (Sigma, St. Louis, Mo.), calpeptin (Santa Cruz Biotechnology, Santa Cruz, Calif.) or equal volume of DMSO was added. Calpain inhibitors were added 1 hour prior to the addition of Fas activating antibody. The cells were incubated for various lengths of time and then lysed and homogenized in lysis buffer. The homogenates were incubated on ice and centrifuged at 22,000 g at 4° C. for 60 minutes. The protein concentration of the supernatant was then determined (DC Protein Assay kit; Bio-Rad Laboratories, Hercules, Calif.). The protein samples were separated on SDS-polyacrylamide gels (Tris-HCl Ready Gels; Bio-Rad Laboratories). After electrophoretic separation, the proteins were transferred onto polyvinylidene fluoride membranes (Immobilon-P; Millipore, Billerica, Mass.). Membranes were then immunoblotted with antibodies according to the manufacturer's instructions. The following antibodies were used: LC3b (Cell Signaling, Beverly, Mass.), Atg5 (Abgent, San Diego, Calif.), Atg12 (Cell Signaling, Beverly, Mass.), calpain 1 (Cell Signaling, Beverly, Mass.), alpha-spectrin (Santa Cruz Biotechnology, Santa Cruz, Calif.), actin (Sigma, St. Louis, Mo.), and GAPDH (Abcam, Cambridge, Mass.).
After determining calpain 1 levels, it was looked to correlate this with calpain activity. […]

With `CCCC[C@@H](C=O)NC(=O)[C@H](CC(C)C)NC(=O)OCc1ccccc1` [calpeptin] the “relative size of the effect on cleaved alpha-spectrin among the calpain inhibitors” value (Fas activating antibody, two concentrations) was “largest effect” and the cleaved alpha-spectrin levels (inhibitor added 1 hour before Fas activating antibody, compared to Fas activation alone) was “decreased”.
